According to patent publication US20100239563A1 (priority 2001, published 2010):

Tests used:
[1] = test system: influenza A virus A/WSN-HK (H3N1); assay type: cell-based
[2] = test system: influenza B virus strain Massachusetts/6/93

Structure (SMILES)	titer of infectious virus particles over infection sequences [1]	reduction of the number of newly formed infectious influenza B virus particles [2]
NC12CC3CC(CC(C3)C1)C2 [amantadine, 1-adamantanamine]	increased, in spite of the amantadine treatment	
N#CC(=C(N)Sc1ccccc1N)C(C#N)=C(N)Sc1ccccc1N [U0126, 1,4-diamino-2,3-dicyano-1,4-bis(2-aminophenylthio)butadiene]	significant reduction of the influenza virus particles	approx. 90%
